Where a SMILES comes first, the peptide text is derived from it. The star is where a group is joined. Oxazole(5-CO) = O=C(c1cnco1)*; Crotonyl(E) = C/C=C/C(=O)*; 2Furoyl = O=C(c1ccco1)*; Butyryl = CCCC(=O)*

The target in the experiment is T1, AF9 YEATS (His-AF9) (Homo sapiens, UniProt P42568).
T1 construct: His-AF9 (aa 1-149, EpiCypher); purchased EpiCypher
T1 sequence (P42568 1-149): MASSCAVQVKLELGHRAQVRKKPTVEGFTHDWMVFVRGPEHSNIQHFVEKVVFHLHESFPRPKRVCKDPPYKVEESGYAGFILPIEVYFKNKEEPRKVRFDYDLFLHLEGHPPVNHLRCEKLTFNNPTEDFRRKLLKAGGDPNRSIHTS
The experiment is described as follows: Biolayer interferometry (BLI) binding to AF9 YEATS. As for the experimental part: These potent inhibitors were then tested to confirm their selectivity for ENL YEATS over AF9 YEATS since the two YEATS domains share high sequence and structure homology. One potential of using ncAA-containing phage display for active site-directed ligand search is the possibility of amino acids flanking the ncAA in a selected peptide to selectively engage the target over a close homologue. We wanted to validate this potential as well. Selective targeting of ENL YEATS is also preferred in leukemia interventions as it plays a pivotal role in the progression and maintenance of several AMLs and poses minimal harm to normal hematopoietic stem cells upon inhibition. […] We propose that the selectivity arises from the peptide residues interacting with surface areas adjacent to the active site of ENL YEATS. […] Similarly, BLI analyses were conducted to examine preferential binding of inhibitors to ENL YEATS. […] Two previous publications have documented peptide-based YEATS inhibitors featuring alkylated lysine residues.[42],[43] […]
Biolayer Interferometry to Validate ENL Ligands:
His-ENL, His-AF9 (aa 1-149, EpiCypher), His-GAS41 (aa 15-160, EpiCypher), and YEATS2-His (aa 200-345, EpiCypher) were reconstituted in water and diluted into assay buffer (20mM Tris, 300 mM NaCl, pH 7.9) for immobilization onto Octet Ni-NTA biosensors (Sartorius). Lyophilized peptides were dissolved in DMF and diluted to designated concentrations in assay buffer. Biolayer interferometry assays were performed in 96 well plates (GreinerBio-One, polypropylene, flat-bottom) using an Octet Red96 System (Sartorius). Wells were filled with 200 μL of assay buffer, blocking buffer (assay buffer + 0.1% BSA), protein solution, peptide solution, regeneration solution, and reload solution. For immobilization, His-tagged proteins were immobilized onto Ni-NTA sensors at 20 for 600 s. Sensors were then dipped into blocking buffer for 180 s, assay […] buffer for 300 s, peptide solution for 300 s, and back to assay buffer for 300 s. If multiple samples were tested, Ni-NTA sensors can be reconditioned in regeneration (10 mM glycine, pH 1.7) solution followed by reload solution (10 mM NiCl2) for 30 and 60 s, respectively. Measurements were carried out at 30 °C. Data were analyzed within the ForteBio Data Analysis software. […]
The AlphaScreen assay was carried out in 384-well plates. […] AlphaScreen-signals were detected by a multi-mode microplate reader (BioTeK Synergy Neo2) equipped with an Alpha-laser (PerkinElmer). The KD value was determined from the plot using nonlinear regression of variable slope (four parameters) and curve fitting performed in GraphPad Prism. […]
The AlphaScreen assay conditions are essential the same as the previous described. […] IC50 values were determined from the plot using […]
Consider `CCCC(=O)NCCCC[C@H](NC(=O)[C@H](Cc1ccc(O)cc1)NC(=O)[C@H](CS)NC(=O)[C@H](Cc1ccc(O)cc1)NC(=O)[C@@H](NC(=O)[C@H](CC(=O)O)NC(=O)[C@@H](N)Cc1ccc(O)cc1)C(C)C)C(N)=O` [ENL-S1] (H-YDVYCYK(Butyryl)-NH2), for which the Kd was determined as 205 nM.
In the case of `C/C=C/C(=O)NCCCC[C@H](NC(=O)[C@H](Cc1ccc(O)cc1)NC(=O)[C@H](CS)NC(=O)[C@H](Cc1ccc(O)cc1)NC(=O)[C@@H](NC(=O)[C@H](CC(=O)O)NC(=O)[C@@H](N)Cc1ccc(O)cc1)C(C)C)C(N)=O` [ENL-S1c] (H-YDVYCYK(Crotonyl(E))-NH2) it was 147 nM; in that of `CC(C)[C@H](NC(=O)[C@H](CC(=O)O)NC(=O)[C@@H](N)Cc1ccc(O)cc1)C(=O)N[C@@H](Cc1ccc(O)cc1)C(=O)N[C@@H](CS)C(=O)N[C@@H](Cc1ccc(O)cc1)C(=O)N[C@@H](CCCCNC(=O)c1ccco1)C(N)=O` [ENL-S1f] (H-YDVYCYK(2Furoyl)-NH2), 144 nM; in that of `CC(C)[C@H](NC(=O)[C@H](CC(=O)O)NC(=O)[C@@H](N)Cc1ccc(O)cc1)C(=O)N[C@@H](Cc1ccc(O)cc1)C(=O)N[C@@H](CS)C(=O)N[C@@H](Cc1ccc(O)cc1)C(=O)N[C@@H](CCCCNC(=O)c1cnco1)C(N)=O` [ENL-S1o] (H-YDVYCYK(Oxazole(5-CO))-NH2), 55.1 nM.

The values are drawn from PMC11046469, “Leveraging a Phage-Encoded Noncanonical Amino Acid: A Novel Pathway to Potent and Selective Epigenetic Reader Protein Inhibitors” (ACS Central Science, 2024).
